# According to US20210315474A1, “DECOUPLED COIL ASSEMBLIES, MAGNETIC RESONANCE SYSTEMS AND METHODS OF USE” (FluoID Inc, priority 2018, published 2021):
# Experiment: 19F magnetic resonance imaging in vivo: tracking isoflurane in rat brain
# Details: live Sprague-Dawley rat
# Source text: A MR system is utilized for this representative imaging experiment.
# Here, indirect inverse irradiation focused on 19F is utilized to provide rapid and specific identification of the target molecule of interest while observing 1H, while circulating in a subject organism.
# A live Sprague-Dawley rat was secured in the bed of the representative holding assembly of Example 1B. The RF coil elements were situated such that the area around its head was encircled to provide complete coverage for the brain of the animal, then the assembly placed in the MRI system of Example 1C. Localization of the spin species of interest, 19F, was accomplished with a spin-echo (or, alternatively, gradient-echo) sequence preceded with a magnetization transfer (MT) pulse allowing magnetization from 19F to 1H. The rat was subjected to increasing stepwise amounts of isoflurane, an inhaled general anesthetic with chemical structure CF3-CHCl—O—CHF2, over 30 minutes (see Table 2), then the flow was halted.
# Anatomical MR images were obtained also using a standard spin-echo (or alternatively, gradient-echo) sequence. The MT pulse duration and strength were maintained constant prior to the signal acquisition by the surface coil.
compound,measurement,setting,value
FC(F)OC(Cl)C(F)(F)F (centres unmarked) [isoflurane],19F signal seen in the brain (level of the drug reaching the CNS in real time),"inhaled isoflurane increased stepwise 1%-3% over 30 minutes, MT pulse 19F to 1H, FIG. 17",increasing amount of 19F signal seen in the brain
same,concentration of isoflurane in the brain after cessation of anesthetic delivery,over the 30 minutes following cessation of anesthetic delivery (not shown),disappearance of the concentration of isoflurane in the brain could be observed
